Test results: paper PMC7253723, “Chain-End Modifications and Sequence Arrangements of Antimicrobial Peptoids for Mediating Activity and Nano-Assembly” (Frontiers in Chemistry, 2020)
Where two headings read alike, the source gives them in different places. Square brackets hold non-standard residues; d marks the D form. Peptide text beside a SMILES is read from it. * marks the point of attachment. N(1-naphthylmethyl)Gly = O=C(O)CNCc1cccc2ccccc12; N(4-MeBn)Gly = Cc1ccc(CNCC(=O)O)cc1; Palmitoyl = CCCCCCCCCCCCCCCC(=O)*; Nspe = C[C@H](NCC(=O)O)c1ccccc1; Nonanoyl = CCCCCCCCC(=O)*; AEEA = NCCOCCOCC(=O)O; NBuGly = CCCCNCC(=O)O; Nlys = NCCCCNCC(=O)O

What was measured:
[1] = test system: Pseudomonas aeruginosa (PA01); assay type: cell-based
Experimental: (§1) Technical triplicates (n = 3) or more of samples at each concentration were analyzed.

[2] = test system: Staphylococcus aureus (NCTC 4135); assay type: cell-based
Experimental: as §1

[3] = test system: Escherichia coli (ATCC 25922); assay type: cell-based
Experimental: as §1

[4] = Critical aggregation concentration (CAC) Nile red fluorescence assay; assay type: physicochemical; settings: Nile red fluorescence (~10 nM NR in water), lipopeptoids 2.5 × 10^-2 to 1 wt.%, excitation 552 nm, peak around 610 nm, room temperature; inflection in emission intensity
Experimental: Nile red (NR) fluorescence was used to measure critical aggregation concentration (CAC) for the synthesized lipopeptoids. Lipopeptoids were dissolved at 2.5 × 10^−2 to 1 wt.% in a dilute solution of Nile red (0.25 μg/100 mL, i.e. ~10 nM concentration) prepared in water. NR was excited at 552 nm and emission was recorded at room temperature in the range 550–750 nm using a 10.0 × 5.0 mm^2 quartz cell (Jasco spectrofluorimeter FP-6500). The intensity of the peak centered around 610 nm is shown in the data presented in Section results and discussion.
We first examined with a CAC assay whether coupling a hydrophobic tail to AMPMs and inserting the kk and EG2 components is a viable design for generating self-assembling lipopeptoids. The CAC measures the concentration above which hydrophobic pockets (e.g., lipophilic cores of micelles) are formed, and lower CACs indicate higher propensities of self-assembly. In our experiments, the CAC is indicated by an inflection in the increase in emission intensity of a lipophilic fluorophore tracer (Nile Red) that emits more strongly when partitioned into hydrophobic lower dielectric environments (see Figure S6 for an example analysis).

[5] = PA01, MH broth microdilution (CLSI M07-A10), ~5 × 10^5 CFU/mL, overnight 37°C, OD 600 nm, MIC = concentration with OD halfway between minimum and maximum, sigmoidal fit ± SD, n = 3 or more, maximum tested 100 μM
[6] = MH broth microdilution (CLSI M07-A10), ~5 × 10^5 CFU/mL, overnight 37°C, OD 600 nm, MIC = concentration with OD halfway between minimum and maximum, sigmoidal fit ± SD, n = 3 or more, maximum tested 100 μM

Row | Antimicrobial activity (MIC) P. aeruginosa [1] | Antimicrobial activity (MIC) S. aureus [2] | Antimicrobial activity (MIC) E. coli [3] | Compound | Antimicrobial activity (MIC) P. aeruginosa [1, 5] | Antimicrobial activity (MIC) S. aureus [2, 6] | Antimicrobial activity (MIC) E. coli [3, 6] | CAC [4]
1 | – | – | – | CCCCCCCCC(=O)NCCOCCOCC(=O)N(CC(=O)N(CC(=O)N(CC(=O)N(CCCC)CC(=O)N(CCCCN)CC(=O)N(CCCCN)CC(=O)N(CCCCN)CC(=O)N(CCCCN)CC(N)=O)Cc1cccc2ccccc12)Cc1ccc(C)cc1)Cc1cccc2ccccc12 [C8-EG2-4k] ({Nonanoyl-AEEA}-[N(1-naphthylmethyl)Gly][N(4-MeBn)Gly][N(1-naphthylmethyl)Gly][NBuGly][Nlys][Nlys][Nlys][Nlys]-NH2) | 16 ± 2 µM | 18 ± 3 µM | 17 ± 1 µM | 2500 ± 350 µM
2 | – | – | – | CCCCCCCCC(=O)NCCOCCOCC(=O)N(CCCCN)CC(=O)N(CC(=O)N(CC(=O)N(CCCCN)CC(=O)N(CC(=O)N(CC(=O)N(CCCCN)CC(=O)N(CC(=O)N(CC(=O)N(CCCCN)CC(=O)N(CCCCN)CC(N)=O)[C@@H](C)c1ccccc1)[C@@H](C)c1ccccc1)[C@@H](C)c1ccccc1)[C@@H](C)c1ccccc1)[C@@H](C)c1ccccc1)[C@@H](C)c1ccccc1 [C8-EG2-(kss)3-kk] ({Nonanoyl-AEEA}-[Nlys][Nspe][Nspe][Nlys][Nspe][Nspe][Nlys][Nspe][Nspe][Nlys][Nlys]-NH2) | 6 ± 2 µM | 3 ± 1 µM | 2 ± 0.3 µM | 270 ± 30 µM
3 | – | – | – | CCCCCCCCCCCCCCCC(=O)NCCOCCOCC(=O)N(CC(=O)N(CC(=O)N(CC(=O)N(CCCC)CC(=O)N(CCCCN)CC(=O)N(CCCCN)CC(=O)N(CCCCN)CC(=O)N(CCCCN)CC(N)=O)Cc1cccc2ccccc12)Cc1ccc(C)cc1)Cc1cccc2ccccc12 [C15-EG2-4k] ({Palmitoyl-AEEA}-[N(1-naphthylmethyl)Gly][N(4-MeBn)Gly][N(1-naphthylmethyl)Gly][NBuGly][Nlys][Nlys][Nlys][Nlys]-NH2) | – | – | – | 320 ± 24 µM
4 | 20 ± 1 µM | 9 ± 0.4 µM | 15 ± 1 µM | CCCCN(CC(=O)N(CCCCN)CC(N)=O)C(=O)CN(CCCCN)C(=O)CN(Cc1cccc2ccccc12)C(=O)CN(CCCCN)C(=O)CN(Cc1ccc(C)cc1)C(=O)CN(CCCCN)C(=O)CNCc1cccc2ccccc12 [Kykbk, reference compound] (H-[N(1-naphthylmethyl)Gly][Nlys][N(4-MeBn)Gly][Nlys][N(1-naphthylmethyl)Gly][Nlys][NBuGly][Nlys]-NH2) | – | – | – | –
5 | – | – | – | C[C@@H](c1ccccc1)N(CC(N)=O)C(=O)CN(C(=O)CN(CCCCN)C(=O)CN(C(=O)CN(C(=O)CNCCCCN)[C@@H](C)c1ccccc1)[C@@H](C)c1ccccc1)[C@@H](C)c1ccccc1 [(kss)2, reference compound] (H-[Nlys][Nspe][Nspe][Nlys][Nspe][Nspe]-NH2) | 44 ± 2 µM | 41 ± 2 µM | >100 µM | –
6 | – | – | – | CCCCCCCCC(=O)NCCOCCOCC(=O)N(CCCCN)CC(=O)N(CC(=O)N(CC(=O)N(CCCCN)CC(=O)N(CC(=O)N(CC(=O)N(CCCCN)CC(=O)N(CCCCN)CC(N)=O)[C@@H](C)c1ccccc1)[C@@H](C)c1ccccc1)[C@@H](C)c1ccccc1)[C@@H](C)c1ccccc1 [C8-EG2-(kss)2-kk] ({Nonanoyl-AEEA}-[Nlys][Nspe][Nspe][Nlys][Nspe][Nspe][Nlys][Nlys]-NH2) | 13 ± 3 µM | 9 ± 1 µM | 18 ± 3 µM | 200 ± 37 µM
7 | 15 ± 1 µM | 2 ± 0.2 µM | 4 ± 0.2 µM | C[C@@H](c1ccccc1)N(CC(N)=O)C(=O)CN(C(=O)CN(CCCCN)C(=O)CN(C(=O)CN(C(=O)CN(CCCCN)C(=O)CN(C(=O)CN(C(=O)CNCCCCN)[C@@H](C)c1ccccc1)[C@@H](C)c1ccccc1)[C@@H](C)c1ccccc1)[C@@H](C)c1ccccc1)[C@@H](C)c1ccccc1 [(kss)3, reference compound] (H-[Nlys][Nspe][Nspe][Nlys][Nspe][Nspe][Nlys][Nspe][Nspe]-NH2) | – | – | – | –
8 | 41 ± 2 µM | 8 ± 0.3 µM | 74 ± 4 µM | CCCCCCCCC(=O)NCCOCCOCC(=O)N(CC(=O)N(CC(=O)N(CC(=O)N(CCCC)CC(=O)N(CCCCN)CC(=O)N(CCCCN)CC(=O)N(CCCCN)CC(=O)N(CCCCN)CC(=O)N(CCCCN)CC(N)=O)Cc1cccc2ccccc12)Cc1ccc(C)cc1)Cc1cccc2ccccc12 [C8-EG2-5k] ({Nonanoyl-AEEA}-[N(1-naphthylmethyl)Gly][N(4-MeBn)Gly][N(1-naphthylmethyl)Gly][NBuGly][Nlys][Nlys][Nlys][Nlys][Nlys]-NH2) | – | – | – | 1600 ± 390 µM
9 | – | – | – | CCCCCCCCCCCCCCCC(=O)NCCOCCOCC(=O)N(CC(=O)N(CCCCN)CC(=O)N(CC(=O)N(CCCCN)CC(=O)N(CC(=O)N(CCCCN)CC(=O)N(CCCC)CC(=O)N(CCCCN)CC(N)=O)Cc1cccc2ccccc12)Cc1ccc(C)cc1)Cc1cccc2ccccc12 [C15-EG2-kykbk] ({Palmitoyl-AEEA}-[N(1-naphthylmethyl)Gly][Nlys][N(4-MeBn)Gly][Nlys][N(1-naphthylmethyl)Gly][Nlys][NBuGly][Nlys]-NH2) | – | – | – | 410 ± 32 µM
10 | – | – | – | CCCCCCCCCCCCCCCC(=O)NCCOCCOCC(=O)N(CC(=O)N(CC(=O)N(CC(=O)N(CCCC)CC(=O)N(CCCCN)CC(=O)N(CCCCN)CC(=O)N(CCCCN)CC(=O)N(CCCCN)CC(=O)N(CCCCN)CC(N)=O)Cc1cccc2ccccc12)Cc1ccc(C)cc1)Cc1cccc2ccccc12 [C15-EG2-5k] ({Palmitoyl-AEEA}-[N(1-naphthylmethyl)Gly][N(4-MeBn)Gly][N(1-naphthylmethyl)Gly][NBuGly][Nlys][Nlys][Nlys][Nlys][Nlys]-NH2) | – | – | – | 360 ± 25 µM
11 | – | – | – | C[C@@H](c1ccccc1)N(CC(N)=O)C(=O)CN(C(=O)CN(CCCCN)C(=O)CN(C(=O)CN(C(=O)CN(CCCCN)C(=O)CN(C(=O)CN(C(=O)CN(CCCCN)C(=O)CN(C(=O)CN(C(=O)CNCCCCN)[C@@H](C)c1ccccc1)[C@@H](C)c1ccccc1)[C@@H](C)c1ccccc1)[C@@H](C)c1ccccc1)[C@@H](C)c1ccccc1)[C@@H](C)c1ccccc1)[C@@H](C)c1ccccc1 [(kss)4, reference compound] (H-[Nlys][Nspe][Nspe][Nlys][Nspe][Nspe][Nlys][Nspe][Nspe][Nlys][Nspe][Nspe]-NH2) | 16 ± 0.3 µM | 4 ± 0.3 µM | 6 ± 0.4 µM | –
12 | – | – | – | CCCCCCCCC(=O)NCCOCCOCC(=O)N(CC(=O)N(CCCCN)CC(=O)N(CC(=O)N(CCCCN)CC(=O)N(CC(=O)N(CCCCN)CC(=O)N(CCCC)CC(=O)N(CCCCN)CC(N)=O)Cc1cccc2ccccc12)Cc1ccc(C)cc1)Cc1cccc2ccccc12 [C8-EG2-kykbk] ({Nonanoyl-AEEA}-[N(1-naphthylmethyl)Gly][Nlys][N(4-MeBn)Gly][Nlys][N(1-naphthylmethyl)Gly][Nlys][NBuGly][Nlys]-NH2) | 15 ± 3 µM | 2 ± 0.2 µM | 11 ± 4 µM | 1900 ± 200 µM
13 | 19 ± 0.4 µM | 7 ± 0.1 µM | 7 ± 0.3 µM | CCCCN(CC(=O)N(CCCCN)CC(=O)N(CCCCN)CC(=O)N(CCCCN)CC(=O)N(CCCCN)CC(N)=O)C(=O)CN(Cc1cccc2ccccc12)C(=O)CN(Cc1ccc(C)cc1)C(=O)CNCc1cccc2ccccc12 [4k, reference compound] (H-[N(1-naphthylmethyl)Gly][N(4-MeBn)Gly][N(1-naphthylmethyl)Gly][NBuGly][Nlys][Nlys][Nlys][Nlys]-NH2) | – | – | – | –
